Laboratory results published in ChEMBL document CHEMBL5338720, “Targeting σ2R/TMEM97 with novel aminotetralins” (Eur J Med Chem, 2022).
pKi: −log10 of the molar value. Blank lines part the entries; values can stand above or below the molecule they belong to.

What was measured:
[1] = target: T1, Sigma intracellular receptor 2 (Rattus norvegicus, UniProt Q5U3Y7); experiment: Displacement of [3H]-ditolylguanidine from sigma 2 receptor/TMEM97 in rat PC-12 cells assessed as inhibition constant in the presence of (+)-pentazocine by competition binding assay; type: cell-based
T1 sequence (Q5U3Y7 whole entry): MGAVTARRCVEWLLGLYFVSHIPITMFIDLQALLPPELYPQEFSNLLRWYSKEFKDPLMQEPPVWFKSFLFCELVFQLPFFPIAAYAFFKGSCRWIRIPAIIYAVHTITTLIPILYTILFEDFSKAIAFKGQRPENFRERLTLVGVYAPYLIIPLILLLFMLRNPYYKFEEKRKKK

[2] = target: Sigma non-opioid intracellular receptor 1 (Cavia porcellus, UniProt Q60492); experiment: Displacement of [3H](+)-pentazocine from sigma 1 receptor in guinea pig brain assessed as inhibition constant by competition binding assay; type: tissue-based
[3] = Selectivity ratio of Ki for displacement of [3H](+)-pentazocine from sigma 1 receptor in guinea pig brain to Ki for displacement of [3H]-ditolylguanidine from sigma 2 receptor/TMEM97 in rat PC-12 cells; type: cell-based
[4] = target: T2, Sigma intracellular receptor 2 (Homo sapiens, UniProt Q5BJF2); experiment: Binding affinity to sigma 2 receptor/TMEM97 (unknown origin) assessed as inhibition constant
[5] = target: T3, Sigma non-opioid intracellular receptor 1 (Homo sapiens, UniProt Q99720); experiment: Binding affinity to sigma 1 receptor (unknown origin) assessed as inhibition constant
[6] = target: T2, Sigma intracellular receptor 2; experiment: Displacement of [3H]-ditolylguanidine from human sigma 2 receptor/TMEM97 transfected in HEK293 cells assessed as inhibition constant in the presence of (+)-pentazocine by competition binding assay; type: cell-based
[7] = target: T2, Sigma intracellular receptor 2; experiment: Potency index, ratio of JVW-1601 Ki to test compound Ki for displacement of [3H]-ditolylguanidine from human sigma 2 receptor/TMEM97 transfected in HEK293 cells assessed as inhibition constant in the presence of (+)-pentazocine by competition binding assay; type: cell-based
[8] = target: T3, Sigma non-opioid intracellular receptor 1; experiment: Displacement of [3H](+)-pentazocine from human sigma 1 receptor transfected in HEK293 cells assessed as inhibition constant by competition binding assay; type: cell-based
[9] = Ratio of drug concentration in mouse brain to plasma at 10 mg/kg, ip measured after 4 hrs; type: ADME, organism-based; details: read-out: BPR
[10] = target: Sodium-dependent serotonin transporter (Homo sapiens, UniProt P31645); experiment: Binding affinity at human SERT assessed as inhibition constant
[11] = target: 5-hydroxytryptamine receptor 1E (Homo sapiens, UniProt P28566); experiment: Binding affinity to human 5HT1E receptor assessed as inhibition constant
[12] = target: Kappa-type opioid receptor (Homo sapiens, UniProt P41145); experiment: Binding affinity at human KOR assessed as inhibition constant
Mu-type opioid receptor = Mu-type opioid receptor (Homo sapiens, UniProt P35372); experiment: Binding affinity at human MOR assessed as inhibition constant
[13] = Selectivity ratio of Ki for displacement of [3H](+)-pentazocine from sigma 1 receptor in guinea pig brain to Ki for displacement of [3H](+)-pentazocine from human sigma 1 receptor transfected in HEK293 cells; type: cell-based
[14] = Ratio of unbound drug concentration in mouse brain to plasma at 10 mg/kg, ip measured after 4 hrs; type: ADME, organism-based; details: read-out: K(p,uu,brain)
[15] = Binding affinity to human Ca2+ ion channel assessed as inhibition constant
[16] = target: Beta-3 adrenergic receptor (Homo sapiens, UniProt P13945); experiment: Binding affinity to human beta 3 adrenergic receptor assessed as inhibition constant
[17] = target: Alpha-2C adrenergic receptor (Homo sapiens, UniProt P18825); experiment: Binding affinity to human alpha 2C adrenergic receptor assessed as inhibition constant
[18] = target: Beta-2 adrenergic receptor (Homo sapiens, UniProt P07550); experiment: Binding affinity to human beta 2 adrenergic receptor assessed as inhibition constant
[19] = target: Muscarinic acetylcholine receptor M1 (Homo sapiens, UniProt P11229); experiment: Binding affinity at human muscarinic M1 receptor assessed as inhibition constant
[20] = Drug concentration in mouse brain at 10 mg/kg, ip measured after 4 hrs; type: ADME, organism-based; details: read-out: Ct
[21] = target: Delta-type opioid receptor (Homo sapiens, UniProt P41143); experiment: Binding affinity at human DOR assessed as inhibition constant
P-glycoprotein (MDR1) = experiment: Efflux ratio of permeability in MDCK-MDR1 cells expressing P-glycoprotein; type: ADME, cell-based, Canis lupus familiaris; details: dog
[22] = target: Beta-1 adrenergic receptor (Homo sapiens, UniProt P08588); experiment: Binding affinity to human beta 1 adrenergic receptor assessed as inhibition constant
D(2) dopamine receptor = D(2) dopamine receptor (Homo sapiens, UniProt P14416); experiment: Binding affinity to human dopamine D2 receptor assessed as inhibition constant
[23] = target: Muscarinic acetylcholine receptor M4 (Homo sapiens, UniProt P08173); experiment: Binding affinity at human muscarinic M4 receptor assessed as inhibition constant
[24] = target: Alpha-1B adrenergic receptor (Homo sapiens, UniProt P35368); experiment: Binding affinity to human alpha 1B adrenergic receptor assessed as inhibition constant
[25] = target: Muscarinic acetylcholine receptor M2 (Homo sapiens, UniProt P08172); experiment: Binding affinity at human muscarinic M2 receptor assessed as inhibition constant
[26] = target: GABA-A receptor; anion channel; experiment: Binding affinity at human GABA A receptor assessed as inhibition constant; type: protein-complex assay
[27] = Half-life in mouse at 10 mg/kg, ip; type: ADME, organism-based; details: in vivo
[28] = Selectivity ratio of Ki for displacement of [3H]-ditolylguanidine from human sigma 2 receptor/TMEM97 transfected in HEK293 cells to Ki for displacement of [3H]-ditolylguanidine from sigma 2 receptor/TMEM97 in rat PC-12 cells; type: cell-based
[29] = target: Sodium-dependent noradrenaline transporter (Homo sapiens, UniProt P23975); experiment: Binding affinity at human Norepinephrine transporter assessed as inhibition constant
[30] = target: Muscarinic acetylcholine receptor M3 (Homo sapiens, UniProt P20309); experiment: Binding affinity at human muscarinic M3 receptor assessed as inhibition constant
Translocator protein = Translocator protein (Homo sapiens, UniProt P30536); experiment: Binding affinity at human PBR assessed as inhibition constant
[31] = target: Serotonin 3 (5-HT3) receptor; experiment: Binding affinity to human 5HT3 receptor assessed as inhibition constant; type: protein-complex assay

T2 sequence (Q5BJF2 whole entry): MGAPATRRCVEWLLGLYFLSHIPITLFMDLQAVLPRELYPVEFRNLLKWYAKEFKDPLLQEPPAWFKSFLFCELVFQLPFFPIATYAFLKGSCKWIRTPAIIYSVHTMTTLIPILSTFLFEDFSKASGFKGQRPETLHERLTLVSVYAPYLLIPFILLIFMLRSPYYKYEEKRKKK
T3 sequence (Q99720 whole entry): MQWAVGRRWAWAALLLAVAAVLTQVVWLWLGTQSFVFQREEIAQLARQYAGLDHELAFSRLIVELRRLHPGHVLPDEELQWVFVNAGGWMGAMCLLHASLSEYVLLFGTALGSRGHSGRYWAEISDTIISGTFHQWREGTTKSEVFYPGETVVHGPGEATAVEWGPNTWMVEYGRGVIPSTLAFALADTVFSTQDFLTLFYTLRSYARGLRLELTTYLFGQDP
Sequence of Sigma non-opioid intracellular receptor 1 (Cavia porcellus, UniProt Q60492) (Q60492 whole entry): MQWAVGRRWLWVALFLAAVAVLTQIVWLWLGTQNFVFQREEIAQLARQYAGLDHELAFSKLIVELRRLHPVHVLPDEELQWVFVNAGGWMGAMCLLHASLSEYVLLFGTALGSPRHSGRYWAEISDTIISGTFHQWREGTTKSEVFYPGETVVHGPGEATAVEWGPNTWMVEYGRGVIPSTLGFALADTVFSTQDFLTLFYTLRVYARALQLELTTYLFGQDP
Sequence of Sodium-dependent serotonin transporter (P31645 whole entry): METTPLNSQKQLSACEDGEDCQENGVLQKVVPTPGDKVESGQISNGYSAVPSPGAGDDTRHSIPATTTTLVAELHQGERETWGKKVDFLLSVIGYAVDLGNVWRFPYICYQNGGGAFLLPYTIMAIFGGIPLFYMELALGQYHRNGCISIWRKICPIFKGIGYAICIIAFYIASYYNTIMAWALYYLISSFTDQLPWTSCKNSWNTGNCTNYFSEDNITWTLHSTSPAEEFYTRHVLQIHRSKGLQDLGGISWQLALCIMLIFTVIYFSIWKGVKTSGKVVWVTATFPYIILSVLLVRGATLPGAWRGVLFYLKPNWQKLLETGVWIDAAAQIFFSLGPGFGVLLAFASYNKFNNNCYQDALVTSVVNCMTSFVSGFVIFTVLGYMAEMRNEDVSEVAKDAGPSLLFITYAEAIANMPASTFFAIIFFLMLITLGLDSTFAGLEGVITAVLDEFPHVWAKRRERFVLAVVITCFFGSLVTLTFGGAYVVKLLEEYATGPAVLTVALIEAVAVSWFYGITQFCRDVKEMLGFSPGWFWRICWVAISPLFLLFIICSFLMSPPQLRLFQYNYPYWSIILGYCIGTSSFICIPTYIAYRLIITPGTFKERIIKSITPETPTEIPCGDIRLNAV
Sequence of Muscarinic acetylcholine receptor M3 (P20309 whole entry): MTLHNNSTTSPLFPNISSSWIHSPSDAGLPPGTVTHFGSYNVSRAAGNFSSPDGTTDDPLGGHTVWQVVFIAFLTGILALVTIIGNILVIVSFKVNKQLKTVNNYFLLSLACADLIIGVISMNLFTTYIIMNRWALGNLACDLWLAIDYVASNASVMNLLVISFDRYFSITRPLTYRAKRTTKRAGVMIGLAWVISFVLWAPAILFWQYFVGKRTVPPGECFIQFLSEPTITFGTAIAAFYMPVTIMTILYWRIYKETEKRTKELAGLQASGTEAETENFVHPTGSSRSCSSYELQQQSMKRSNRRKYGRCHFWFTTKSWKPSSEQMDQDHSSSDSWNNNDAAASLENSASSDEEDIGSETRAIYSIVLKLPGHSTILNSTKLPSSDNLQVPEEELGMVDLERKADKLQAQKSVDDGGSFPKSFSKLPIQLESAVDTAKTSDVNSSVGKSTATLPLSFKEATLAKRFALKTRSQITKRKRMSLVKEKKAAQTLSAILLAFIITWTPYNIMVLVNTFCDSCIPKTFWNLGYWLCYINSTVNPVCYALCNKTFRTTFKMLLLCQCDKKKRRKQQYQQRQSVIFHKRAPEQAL
Sequence of Beta-3 adrenergic receptor (P13945 whole entry): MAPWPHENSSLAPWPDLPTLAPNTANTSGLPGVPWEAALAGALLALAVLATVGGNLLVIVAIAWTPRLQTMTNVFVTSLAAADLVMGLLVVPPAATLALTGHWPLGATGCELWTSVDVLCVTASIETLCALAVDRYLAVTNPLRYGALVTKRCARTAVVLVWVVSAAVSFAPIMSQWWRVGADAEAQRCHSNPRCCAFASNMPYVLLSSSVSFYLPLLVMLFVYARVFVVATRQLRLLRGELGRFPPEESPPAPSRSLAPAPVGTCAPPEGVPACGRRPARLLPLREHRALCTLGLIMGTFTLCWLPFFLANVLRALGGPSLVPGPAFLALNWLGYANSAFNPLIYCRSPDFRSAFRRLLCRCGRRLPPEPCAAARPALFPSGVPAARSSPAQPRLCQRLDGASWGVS
Sequence of Muscarinic acetylcholine receptor M1 (P11229 whole entry): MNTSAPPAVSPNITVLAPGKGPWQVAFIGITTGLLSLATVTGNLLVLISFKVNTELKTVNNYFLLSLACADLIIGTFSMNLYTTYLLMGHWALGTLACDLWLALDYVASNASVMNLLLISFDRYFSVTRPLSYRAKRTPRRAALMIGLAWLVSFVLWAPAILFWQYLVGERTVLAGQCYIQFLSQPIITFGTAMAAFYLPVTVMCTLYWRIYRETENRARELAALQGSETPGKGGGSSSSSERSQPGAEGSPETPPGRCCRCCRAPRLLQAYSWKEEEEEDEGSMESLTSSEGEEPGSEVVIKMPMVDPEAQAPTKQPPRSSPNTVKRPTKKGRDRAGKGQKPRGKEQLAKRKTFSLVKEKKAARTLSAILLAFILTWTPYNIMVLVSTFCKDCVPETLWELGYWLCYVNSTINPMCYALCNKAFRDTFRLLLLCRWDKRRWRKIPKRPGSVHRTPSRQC
Sequence of 5-hydroxytryptamine receptor 1E (P28566 whole entry): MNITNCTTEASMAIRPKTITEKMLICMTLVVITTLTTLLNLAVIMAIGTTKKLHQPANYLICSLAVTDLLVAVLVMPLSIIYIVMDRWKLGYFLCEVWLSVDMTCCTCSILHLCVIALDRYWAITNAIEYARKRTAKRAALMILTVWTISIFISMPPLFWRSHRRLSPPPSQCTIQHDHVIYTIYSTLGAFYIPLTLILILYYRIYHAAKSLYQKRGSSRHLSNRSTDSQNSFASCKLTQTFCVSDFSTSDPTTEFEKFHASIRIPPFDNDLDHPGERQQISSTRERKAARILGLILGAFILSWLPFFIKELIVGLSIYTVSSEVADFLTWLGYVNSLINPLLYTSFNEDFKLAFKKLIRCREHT
Sequence of Muscarinic acetylcholine receptor M4 (P08173 whole entry): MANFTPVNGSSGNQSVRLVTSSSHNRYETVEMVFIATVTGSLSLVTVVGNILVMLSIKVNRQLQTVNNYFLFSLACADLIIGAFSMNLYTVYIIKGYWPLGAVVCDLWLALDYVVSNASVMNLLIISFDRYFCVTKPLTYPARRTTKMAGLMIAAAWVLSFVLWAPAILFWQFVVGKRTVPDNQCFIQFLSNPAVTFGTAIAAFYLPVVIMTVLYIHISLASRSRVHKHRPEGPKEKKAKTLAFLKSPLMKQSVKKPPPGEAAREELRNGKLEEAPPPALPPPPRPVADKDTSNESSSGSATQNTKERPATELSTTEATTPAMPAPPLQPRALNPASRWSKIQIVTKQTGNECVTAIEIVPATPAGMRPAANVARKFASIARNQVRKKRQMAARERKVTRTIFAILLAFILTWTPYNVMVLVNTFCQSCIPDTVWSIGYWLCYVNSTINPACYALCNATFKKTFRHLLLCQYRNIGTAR
Sequence of Beta-2 adrenergic receptor (P07550 whole entry): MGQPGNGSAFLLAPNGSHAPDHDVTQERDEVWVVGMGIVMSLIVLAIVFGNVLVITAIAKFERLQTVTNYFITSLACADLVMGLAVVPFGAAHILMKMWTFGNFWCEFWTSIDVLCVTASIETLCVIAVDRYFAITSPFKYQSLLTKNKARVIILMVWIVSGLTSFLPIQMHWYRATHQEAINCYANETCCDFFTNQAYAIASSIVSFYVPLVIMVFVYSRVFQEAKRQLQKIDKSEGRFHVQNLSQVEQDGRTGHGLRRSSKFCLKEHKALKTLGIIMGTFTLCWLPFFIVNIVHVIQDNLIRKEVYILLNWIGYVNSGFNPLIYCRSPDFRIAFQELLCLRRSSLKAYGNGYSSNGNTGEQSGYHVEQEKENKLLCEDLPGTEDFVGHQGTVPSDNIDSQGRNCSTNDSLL
Sequence of Alpha-2C adrenergic receptor (P18825 whole entry): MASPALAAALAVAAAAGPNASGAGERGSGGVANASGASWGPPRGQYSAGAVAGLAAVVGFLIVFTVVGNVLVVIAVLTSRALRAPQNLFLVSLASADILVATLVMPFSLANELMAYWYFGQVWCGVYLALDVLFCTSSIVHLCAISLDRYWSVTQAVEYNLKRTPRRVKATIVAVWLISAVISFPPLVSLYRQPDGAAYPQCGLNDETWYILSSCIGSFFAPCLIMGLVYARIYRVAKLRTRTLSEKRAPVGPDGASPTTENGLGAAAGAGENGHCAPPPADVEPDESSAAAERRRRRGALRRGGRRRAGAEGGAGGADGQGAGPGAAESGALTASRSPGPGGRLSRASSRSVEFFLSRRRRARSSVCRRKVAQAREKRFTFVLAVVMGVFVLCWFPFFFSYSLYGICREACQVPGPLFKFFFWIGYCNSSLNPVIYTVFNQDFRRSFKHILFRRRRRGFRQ
Sequence of Translocator protein (P30536 whole entry): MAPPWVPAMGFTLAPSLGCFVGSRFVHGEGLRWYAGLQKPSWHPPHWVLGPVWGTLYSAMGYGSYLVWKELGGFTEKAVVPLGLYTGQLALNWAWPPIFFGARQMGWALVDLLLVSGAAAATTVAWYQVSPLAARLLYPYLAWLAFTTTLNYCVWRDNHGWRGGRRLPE

SMILES: CCCN1CCN(c2ccc3c(c2)CCCC3N(C)C(=O)OCc2ccccc2)CC1 (configuration not stated)
pKi [1]: 7.89 | pKi [2]: 7.40

SMILES: CCCN1CCN(c2ccc3c(c2)C(N(C)C(=O)CCc2ccccc2)CCC3)CC1 (configuration not stated)
pKi [6]: 7.77 | Ratio Ki [7]: 2 | pKi [2]: 6.01

SMILES: CCCN1CCN(c2ccc3c(c2)C(OC/C=C/c2ccccc2)CCC3)CC1 (configuration not stated)
pKi [6]: 7.82 | pKi [2]: 6.85

SMILES: CCOC(=O)CCN1CCN(c2ccc3c(c2)C(N(C)C(=O)OCc2ccccc2)CCC3)CC1 (configuration not stated)
pKi [1]: 8.35 | pKi [2]: 5.78

SMILES: CCOC(=O)CN1CCN(c2ccc3c(c2)C(N(C)C(=O)OCc2ccccc2)CCC3)CC1 (configuration not stated)
pKi [1]: 6.05 | pKi [2]: < 5.00

SMILES: CCCN1CCN(c2cccc3c2CCCC3N(C)C(=O)OCc2ccccc2)CC1 (configuration not stated)
pKi [1]: 7.59 | pKi [2]: 7.92

SMILES: CC(C)N1CCN(c2ccc3c(c2)C(N(C)C(=O)OCc2ccccc2)CCC3)CC1 (configuration not stated)
pKi [1]: 8.08 | pKi [2]: 6.65

SMILES: CCCN1CCN(c2ccc3c(c2)C(OCc2ccccc2)CCC3)CC1 (configuration not stated)
pKi [1]: 7.30 | pKi [2]: 6.98

SMILES: CCN1CCN(c2ccc3c(c2)C(N(C)C(=O)OCc2ccccc2)CCC3)CC1 (configuration not stated)
pKi [1]: 7.46 | pKi [2]: 6.05

SMILES: CCCN1CCN(c2ccc3c(c2)C(N(C)C(=O)OCc2ccccc2)CCC3)CC1 (configuration not stated)
pKi [1]: 8.26 | Kp at 4 h [9]: 2.8 | pKi [10]: < 5.00 | pKi [11]: < 5.00 | pKi [6]: 7.48 | pKi [12]: < 5.00 | pKi (Mu-type opioid receptor): < 5.00 | Ratio Ki [13]: 2.5 | Kp uu at 4 h [14]: 0.36 | pKi [15]: < 5.00 | Ratio Ki [3]: 36 | pKi [16]: < 5.00 | pKi [17]: < 5.00 | pKi [18]: < 5.00 | pKi [19]: < 5.00 | concentration at 4 h [20]: 104 nM | pKi [21]: < 5.00 | efflux ratio (P-glycoprotein (MDR1)): 1 | pKi [22]: < 5.00 | pKi (D(2) dopamine receptor): < 5.00 | pKi [23]: < 5.00 | pKi [24]: < 5.00 | pKi [25]: < 5.00 | pKi [8]: 7.09 | pKi [26]: < 5.00 | half-life [27]: 1.2 h | Ratio Ki [28]: 6 | pKi [29]: < 5.00 | pKi [30]: < 5.00 | pKi (Translocator protein): 5.08 | pKi [31]: < 5.00 | pKi [2]: 6.70

SMILES: CN(C(=O)OCc1ccccc1)C1CCCc2ccc(N3CCN(CCCO)CC3)cc21 (configuration not stated)
pKi [1]: 7.68 | pKi [2]: 6.32

SMILES: CCCN1CCN(c2ccc3c(c2)C(N(C)C(=O)/C=C/c2ccccc2)CCC3)CC1 (configuration not stated)
pKi [6]: 8.02 | pKi [8]: 6.71 | Ratio Ki [7]: 3.4

SMILES: CCCN1CCN(c2ccc3c(c2)C(N(CC)C(=O)OCc2ccccc2)CCC3)CC1 (configuration not stated)
pKi [1]: 8.34 | pKi [2]: 6.49

More lines, main results first:

pKi [1]: 8.68 | pKi [2]: 7.80
SMILES: CN(C(=O)OCc1ccccc1)C1CCCc2ccc(N3CCN(C4CCCCC4)CC3)cc21 (configuration not stated)
Ratio Ki [3]: 7.6

pKi [1]: 8.03 | pKi [2]: 6.70
SMILES: CCCN1CCN(c2ccc3c(c2)C(N(CCC)C(=O)OCc2ccccc2)CCC3)CC1 (configuration not stated)

pKi [4]: 7.64 | pKi [5]: 6.61
SMILES: Clc1ccc2c(c1)C1CC2CCCN1CCc1ccccc1 (configuration not stated)

pKi [6]: 7.77 | pKi [2]: 7.68
SMILES: CCCN1CCN(c2ccc3c(c2)C(OCCCc2ccccc2)CCC3)CC1 (configuration not stated)

pKi [1]: 7.78
SMILES: CCCN1CCN(c2ccc3c(c2)C(N(CCCCCCCCCCCN)C(=O)OCc2ccccc2)CCC3)CC1 (configuration not stated)

pKi [1]: 8.68 | pKi [2]: 7.07
SMILES: CN(C(=O)OCc1ccccc1)C1CCCc2ccc(N3CCN(C4CCCC4)CC3)cc21 (configuration not stated)

pKi [1]: 6.55 | pKi [2]: 5.53
SMILES: CN1CCN(c2ccc3c(c2)C(N(C)C(=O)OCc2ccccc2)CCC3)CC1 (configuration not stated)

pKi [6]: 6.89 | pKi [2]: 5.98
SMILES: COCCN1CCN(c2ccc3c(c2)C(N(C)C(=O)OCc2ccccc2)CCC3)CC1 (configuration not stated)

pKi [6]: 7.46 | pKi [2]: 6.73
SMILES: CCCN1CCN(c2ccc3c(c2)C(N(CCC(=O)OCC)C(=O)OCc2ccccc2)CCC3)CC1 (configuration not stated)

pKi [6]: 7.28 | pKi [8]: 6.73
SMILES: CCCN1CCN(c2ccc3c(c2)C(N(C)C(=O)Cc2ccccc2)CCC3)CC1 (configuration not stated)

pKi [1]: 7.60 | pKi [2]: 7.48
SMILES: CCCN1CCN(c2ccc3c(c2)C(OC(=O)CCc2ccccc2)CCC3)CC1 (configuration not stated)

pKi [1]: 8.14 | pKi [2]: 5.68
SMILES: CCN(CC)C(=O)CCN1CCN(c2ccc3c(c2)C(N(C)C(=O)OCc2ccccc2)CCC3)CC1 (configuration not stated)

pKi [6]: 6.87 | pKi [2]: 6.60
SMILES: CCCN1CCN(c2ccc3c(c2)C(N(CCCO)C(=O)OCc2ccccc2)CCC3)CC1 (configuration not stated)

pKi [1]: 7.92 | pKi [2]: 6.58
SMILES: CN(C(=O)OCc1ccccc1)C1CCCc2ccc(N3CCN(C4CCC4)CC3)cc21 (configuration not stated)
Ratio Ki [3]: 41
